EC50 data for one compound are collected here from publication PMC8146980, “An Arrhythmic Mutation E7K Facilitates TRPM4 Channel Activation via Enhanced PIP2 Interaction” (Cells, 2021).

The target in test [1] is T1, TRPM4 (TRPM4b) (Homo sapiens, UniProt Q8TD43).
T1 construct: full-length human TRPM4b CDS subcloned into pcI-neo, expressed in HEK293 cells (original clone in pcDNA4TO-Flag); homotetramer (known biology)
Briefly: inside-out patch clamp, HEK293, reactivation after desensitization, Hill fit. Format: cell-based. The note with it: read-out: apparent EC50; Kd (abstract). For orientation: The patch-clamp technique gives a direct electrical read-out from membranes.

Test [2] has as its target T2, TRPM4 (TRPM4b) (Homo sapiens, UniProt Q8TD43, E7K).
T2 construct: full-length human TRPM4b CDS subcloned into pcI-neo, expressed in HEK293 cells (original clone in pcDNA4TO-Flag); homotetramer (known biology)
The description is as above. The class given is cell-based. The conditions noted are these: read-out: apparent EC50; Kd (abstract).

T1 sequence (Q8TD43 whole entry): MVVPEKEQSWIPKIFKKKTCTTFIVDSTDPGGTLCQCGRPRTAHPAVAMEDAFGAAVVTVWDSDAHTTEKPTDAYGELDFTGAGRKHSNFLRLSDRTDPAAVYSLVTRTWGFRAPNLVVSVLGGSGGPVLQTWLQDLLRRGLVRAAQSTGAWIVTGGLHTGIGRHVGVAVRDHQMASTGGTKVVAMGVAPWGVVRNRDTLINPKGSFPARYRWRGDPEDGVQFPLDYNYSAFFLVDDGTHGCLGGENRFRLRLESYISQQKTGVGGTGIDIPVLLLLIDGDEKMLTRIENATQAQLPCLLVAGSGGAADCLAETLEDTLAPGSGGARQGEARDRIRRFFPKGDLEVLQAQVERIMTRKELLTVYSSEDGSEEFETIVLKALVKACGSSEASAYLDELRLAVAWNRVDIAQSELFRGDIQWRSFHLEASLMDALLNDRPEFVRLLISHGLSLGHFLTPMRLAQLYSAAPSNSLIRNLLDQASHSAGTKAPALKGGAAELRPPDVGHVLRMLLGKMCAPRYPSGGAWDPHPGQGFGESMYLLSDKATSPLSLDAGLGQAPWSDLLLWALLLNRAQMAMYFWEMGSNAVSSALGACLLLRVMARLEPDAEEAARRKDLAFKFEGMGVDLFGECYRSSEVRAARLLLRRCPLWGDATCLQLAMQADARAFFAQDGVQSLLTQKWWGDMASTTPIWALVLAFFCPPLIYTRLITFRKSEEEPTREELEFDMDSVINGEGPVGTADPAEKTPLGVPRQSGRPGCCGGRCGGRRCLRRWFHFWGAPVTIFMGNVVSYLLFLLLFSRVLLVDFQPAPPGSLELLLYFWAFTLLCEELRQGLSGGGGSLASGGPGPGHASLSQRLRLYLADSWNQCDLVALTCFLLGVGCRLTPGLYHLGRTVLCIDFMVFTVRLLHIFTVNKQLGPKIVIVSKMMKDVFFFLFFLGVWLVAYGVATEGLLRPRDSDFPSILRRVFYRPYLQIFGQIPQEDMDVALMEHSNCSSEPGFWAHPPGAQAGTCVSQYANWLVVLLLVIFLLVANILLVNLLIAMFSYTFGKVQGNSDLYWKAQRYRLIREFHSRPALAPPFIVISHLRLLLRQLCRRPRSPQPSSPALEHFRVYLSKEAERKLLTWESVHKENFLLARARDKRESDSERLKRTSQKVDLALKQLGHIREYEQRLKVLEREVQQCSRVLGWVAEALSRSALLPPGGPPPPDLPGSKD
T2 sequence (Q8TD43 whole entry E7K): as the sequence (Q8TD43 whole entry) above, with E7K counted along it

One may read the EC50 as the concentration giving half of the maximal effect. Turning to `CCCCCCCC(=O)OC[C@H](COP(=O)(O)O[C@@H]1[C@H](O)[C@H](O)[C@@H](OP(=O)(O)O)[C@H](OP(=O)(O)O)[C@H]1O)OC(=O)CCCCCCC` [diC8-PI(4,5)P2], the EC50 in test [1] amounted to 2400 ± 230 nM; in test [2], 1440 ± 200 nM.
